As a reminder, the IC50 is the concentration that inhibits the measured activity by half.

We go through 33 compounds from ChEMBL document CHEMBL5543059, “Discovery of anti-inflammatory natural flavonoids: Diverse scaffolds and promising leads for drug discovery” (Eur J Med Chem, 2023).

Each structure is given as a SMILES string.

In assay [1] the test system is RAW264.7. Briefly: Anti-neuroinflammatory activity in mouse RAW264.7 cells assessed as inhibition of LPS-induced NO production pre-incubated for 1 hr followed by LPS stimulation and measured after 24 hrs by Griess reagent based assay. The format is functional, cell-based. On the technique in general: The Griess reaction detects nitrite, a stable product of nitric oxide.

Assay [2] concerns BV-2. Description: Anti-inflammatory activity in mouse BV-2 cells assessed as reduction in LPS-induced NO production pre-treated with compounds for 2 hrs followed by LPS-stimulation measured for 22 hrs by Griess reagent based analysis. It is filed as functional, cell-based.
In assay [3] the test system is Neutrophil. Description: Inhibition of fMLF/CB-induced human Neutrophil activation assessed as reduction in superoxide anion. The format is functional, cell-based.
The test system of assay [4] is Neutrophil. Description: Inhibition of fMLF/CB-induced human Neutrophil activation assessed as reduction in elastase release. The format is functional, cell-based.
Assay [5] has as its system BV-2. Briefly: Antiinflammatory activity in mouse BV-2 cells assessed as reduction in LPS-induced NO production pre-treated with compound for 1 hr followed by LPS-stimulation and measured for 23 hrs by Griess reagent based analysis. It is filed as functional, cell-based.
Assay [6] concerns RAW264.7. Briefly: Antiinflammatory activity in mouse RAW264.7 cells assessed as decrease in LPS-induced IL-6 secretion after 24 hrs by ELISA method. The format is functional, cell-based. As to conditions: RAW264.7, 24 h.
The test system of another assay is Macrophage. Description: Anti-inflammatory activity in mouse macrophages extracted from abdominal activity assessed as inhibition of LPS-induced nitric oxide production. The format is functional, cell-based.
The test system of assay [7] is RAW264.7. Description: Anti-inflammatory activity in mouse RAW264.7 cells assessed as inhibition of LPS-induced nitric oxide production measured after 18 hrs by Griess assay. The format is functional, cell-based. Particulars: RAW264.7, 18 h.
Assay [8] deals with RAW264.7. Briefly: Antiinflammatory activity in LPS-induced mouse RAW264.7 cells assessed as reduction in COX2 mRNA expression incubated for 24 hrs by qRT-PCR analysis. The format is functional, cell-based. As to conditions: RAW264.7, 24 h. For orientation: In qPCR the cycle at which signal appears reflects the starting amount.
The test system of assay [9] is BV-2. Description: Antiinflammatory activity against mouse BV-2 cells assessed as reduction in LPS induced NO production measured for 24 hrs by Griess reagent based analysis. It is filed as functional, cell-based. As to conditions: BV-2, 24 h.
For assay [10], the system named is Mus musculus. Briefly: Antiinflammatory activity against TPA-induced CD-1 mouse ear edema model assessed as reduction in ear edema at 1 uM relative to control. Also on record: scale not given: the % may be the effect or the level left. It is filed as functional.
The test system of assay [11] is RAW264.7. Description: Antiinflammatory activity in LPS-activated mouse RAW264.7 cells assessed as inhibition of ROS production at 10 uM relative to control. The format is functional. Also on record: scale not given: the % may be the effect or the level left.
Assay [12] is described as follows: Anti-inflammatory activity in carrageenan-induced human PBMC cells assessed as inhibition of IL-beta leakage at 10 uM measured for 24 hrs relative to control. The format is functional. Also noted: scale not given: the % may be the effect or the level left.
Assay [13] concerns RAW264.7. Description: Anti-inflammatory activity in LPS-stimulated mouse RAW264.7 cells assessed as inhibition of NO production incubated for 24 hrs by Griess reagent based assay. The format is functional, cell-based. As to conditions: RAW264.7, 24 h.
For assay [14], the system named is J774.A1. Briefly: Antiinflammatory activity in LPS-induced mouse J774.A1 macrophage cells assessed as reduction in LPS-induced IL-1 beta level. It is filed as functional, cell-based.
Assay [15] concerns J774.A1. Description: Anti-inflammatory activity in mouse J774.A1 macrophage cells assessed as reduction in LPS-induced TNF-alpha production. It is filed as functional, cell-based.
Assay [16] has as its system Mus musculus. Description: Antiinflammatory activity against TPA-induced CD-1 mouse ear edema model assessed as reduction in ear edema at 0.25 mg/kg relative to control. The format is functional. Also on record: scale not given: the % may be the effect or the level left.
For the next assay, the system named is B16-F10. Briefly: Anti-inflammatory activity in LPS-stimulated mouse B16-F10 cells assessed as reduction in TNFalpha production measured for 12 hrs by ELISA method. As to conditions: B16-F10, 12 h. The format is functional, cell-based. A general note: ELISA stands for enzyme-linked immunosorbent assay.
A further assay has as its system THP-1. Description: Anti-inflammatory activity in LPS-stimulated human THP-1 cells assessed as reduction of TNFalpha measured for 12 hrs by ELISA method. The format is functional, cell-based. As to conditions: THP-1, 12 h.

Turning to `C=C(C)c1cc2c(OC)c3c(O)c(-c4ccc5c(c4)OCO5)c(=O)oc3c(OC)c2o1`, the IC50 with RAW264.7 [1] came to 0.89 µM. Turning to `CC(C)=CCc1cc(C(=O)/C=C/c2ccc(O)cc2O)c(O)cc1O`, in the assay on BV-2 [2], the IC50 is 2.26 µM. Regarding `Cc1cc2oc(-c3ccc(O)c(O)c3)cc(=O)c2c2c1C[C@@]1(C)C(C)(C)CCC[C@@]1(C)O2`, the 50% inhibitory concentration (IC50) in the assay with Neutrophil [3] worked out at 5.8 µM; with Neutrophil [4], 3.8 µM. Turning to `COc1c([C@@H](CC(=O)c2ccccc2)OC)c(O)cc2occc12`, the IC50 with BV-2 [2] is 29.2 µM. With `COc1ccc(-c2c(OC)c3c(OC)c4cc(C(C)(C)O)oc4cc3oc2=O)cc1`, the IC50 in the assay with RAW264.7 [1] came to 0.89 µM. Consider `COc1ccc(-c2c(O)c3c(OC)c4c(OC)c(C(C)C)oc4c(OC)c3oc2=O)cc1OC`, for which the IC50 in the assay with RAW264.7 [1] came to 0.89 µM.

`COc1cc2oc(-c3ccc4c(c3)OCO4)c(OC)c(=O)c2cc1OC`: the IC50 in the assay with BV-2 [5] was 11.3 µM. For the compound `COc1c(-c2ccccc2)oc2c3c(ccc2c1=O)OC(C)(C)[C@H](O)C3`, the IC50 with BV-2 [5] was 11.3 µM. With `COc1cc2c(c(C)c1OC)O[C@H](c1cc(O)c(OC)c(O)c1)CC2`, the IC50 in the assay with RAW264.7 [6] came to 18 µM. For `COc1ccc(-c2coc3cc(O)c(CC=C(C)C)c(O)c3c2=O)c(O)c1`, the half-inhibitory concentration (IC50) in the assay with Macrophage is 4.68 µM.

As for `Cc1c(O)c(C)c2c(c1O)C(=O)C[C@@H](c1ccc(O)c(O)c1)O2`, the half-inhibitory concentration (IC50) with RAW264.7 [7] turned out to be 20 µM. In the case of `CC(C)=CCC/C(C)=C/Cc1cc(C2CC(=O)c3c(O)cc(O)cc3O2)ccc1O` (centres undefined), the IC50 in the assay on RAW264.7 [8] came out at 11.7 µM. Take `Oc1cc(O)c2c(c1)O[C@@H](c1ccc(O)c(O)c1)[C@@H](O)C2` [(+)-EPICATECHIN]: in the assay on BV-2 [9], the IC50 was determined as 29.1 µM.

For the compound `O=C1c2c(O)cc(O)cc2O[C@H](c2ccc(O)c(O)c2)[C@H]1O` [(+)-TAXIFOLIN], the Activity with Mus musculus [10] was determined as 12%. For `Oc1cc(O)c2c(c1)O[C@H](c1ccc(O)c(O)c1)[C@@H](O)C2` [CIANIDANOL], the half-inhibitory concentration (IC50) in the assay with BV-2 [9] turned out to be 26.1 µM. Regarding `c1ccc2c(c1)[I+]c1ccccc1-2` [DIPHENYLENEIODONIUM], in the assay on Neutrophil [4], the IC50 was 1 µM.

Regarding `COc1cc(O)ccc1/C=C/C(=O)c1ccc(O)cc1` [ECHINATIN], the Activity with RAW264.7 [11] is reported as 80%. On to `COc1c(O)cc2oc(-c3ccc(O)c(O)c3)cc(=O)c2c1O` [EUPAFOLIN], for which the IC50 in the assay with Macrophage amounted to 60 µM.

Consider `Oc1cc(O)c2c(c1)O[C@H](c1cc(O)c(O)c(O)c1)[C@@H](O)C2` [GALLOCATECHIN], for which, in the assay with BV-2 [9], the IC50 was found to be 30.3 µM.

For `COc1ccc(-c2cc(=O)c3c(O)c(OC)c(OC)c(OC)c3o2)cc1` [GARDENIN B], the Activity in assay [12] turned out to be 33.8%. With `COc1cc(O)c2c(=O)cc(-c3ccc(O)cc3)oc2c1` [GENKWANIN], in the assay on RAW264.7 [13], the IC50 came to 5.64 µM. For `CC(C)=CCc1cc(-c2oc3cc(O)cc(O)c3c(=O)c2O)ccc1O` [ISOLICOFLAVONOL], the concentration for half-maximal inhibition (IC50) in the assay with BV-2 [5] came to 2.88 µM. As for `COc1cc2oc(-c3ccccc3)cc(=O)c2c(O)c1OC` [MOSLOFLAVONE], the IC50 worked out at 6.4 µM in the assay with J774.A1 [14] and 0.22 µM with J774.A1 [15]. As for `O=C1C[C@@H](c2ccc(O)cc2)Oc2cc(O)cc(O)c21` [NARINGENIN], the Activity in the assay on Mus musculus [16] turned out to be 42%. In addition, the IC50 in the assay with Neutrophil [3] came out at 3.3 µM; in the assay on Neutrophil [4] it was 5.3 µM. Regarding `O=S(=O)(F)Cc1ccccc1` [PHENYLMETHYLSULFONYLFLUORIDE], the IC50 in the assay with Neutrophil [3] came out at 95 µM. As to `O=C1c2c(O)cc(O)cc2O[C@H](c2ccccc2)[C@H]1O` [PINOBAKSIN], in the assay on Mus musculus [10], the Activity was found to be 12.28%. Take `O=C1C[C@@H](c2ccccc2)Oc2cc(O)cc(O)c21` [PINOCEMBRIN]: in the assay on Mus musculus [16], the Activity amounted to 67.4%. As to `COc1cc(O)c2c(c1)O[C@H](c1ccc(O)cc1)CC2=O` [SAKURANETIN], the Activity with Mus musculus [16] is 45.8%. `COc1c(OC)c(O)c2c(=O)cc(-c3ccc(O)c(O)c3)oc2c1OC` [SIDERITIFLAVONE]: the IC50 with B16-F10 was 5.6 µM; in the assay with THP-1 it was 12.4 µM. Turning to `O=C1CC(c2ccc(O)cc2O)Oc2cc(O)cc(O)c21` (centres undefined) [STEPPOGENIN], the IC50 in the assay with RAW264.7 [7] turned out to be 6.1 µg/mL.

Regarding `CNC(=N)NCCC[C@H](N)C(=O)O` [TILARGININE], the IC50 in the assay with BV-2 [9] is 14.8 µM.

`COc1cc(-c2coc3cc(O)c(CC=C(C)C)c(O)c3c2=O)c(OC)cc1O` [VIRIDIFLORIN]: the IC50 in the assay on Macrophage stood at 5.36 µM. Consider `COc1c(OC)c(O)c2c(=O)cc(-c3ccc(O)cc3)oc2c1OC` [XANTHOMICROL], for which the values for the 50% inhibitory concentration (IC50) with B16-F10 and in the assay on THP-1 were 3.8 µM and 8.1 µM, respectively.
